Measured values as given in patent US10363253B2, “Combination products for the treatment of RSV” (priority 2016, dated 2019).
Read-outs that look alike come from different tables or passages of the source.

Tested on: rgRSV224, an engineered RSV strain that encodes for eGFP
Type: cell-based
Description: To evaluate their combined antiviral effect against RSV, in vitro combination studies were performed with JNJ-53718678 (“compound A”) and various compounds with different mechanisms-of-action (“compound B”). In short, 9 concentrations of Compound A were combined with 6 or 7 concentrations of a certain compound B. HeLa cells were infected with rgRSV224, an engineered RSV strain that encodes for eGFP (Hallak L K, Spillmann D, Collins P L, Peeples M E. Glycosaminoglycan sulfation requirements for respiratory syncytial virus infection; Journal of Virology (2000), 74(22), 10508-13), in the presence of various concentrations of compound A and compound B individually or in combination.
Compound stock solutions were 5 mM in 100% DMSO, with following exceptions: ribavirin, 20 mM; A 60444, 10 mM; CR9501, 141 μM in PBS; palivizumab, 156 μM in PBS; MDT 637, 100 μM in methanol. First, the compounds were serially diluted in 3-fold dilution series in DMSO; CR9501 and palivizumab were serially diluted in cell culture medium, and MDT 637 in methanol. The concentration series were diluted 100-fold in cell culture medium to achieve a combination matrix. 10 μL of these compound solutions were transferred to black 384-well clear-bottom tissue-culture treated plates. Next, 10 μL of a […] HeLa cell suspension was added to achieve 3000 cells per well. Finally, 10 μL of diluted virus stock was added to achieve an MOI of 1. The final DMSO concentration of all wells was 0.5% DMSO, except for the MDT 637 experiment where it was 0.25% DMSO+0.25% methanol. Each combination of compound concentrations was tested in 4 replicates on 3 separate plates, resulting in a total of 12 replicates. The plates were incubated for 3 days at 37° C. in a humidified atmosphere at 5% CO2. The GFP signal was measured with PerkinElmer EnVision apparatus using a 405 nm filter.
The method of Harbron (Statistics in Medicine, 2010, DOI:10.1002/sim3916) was used to assess synergy. Using the Loewe definition, two compounds are characterized as being additive, synergistic or antagonistic by:
where d1 and d2 represent the doses of the two compounds that in combination produce an effect y, and Dy,1 and Dy,2 represent the doses of the two compounds that produce the same effect, y, when administered as a monotherapy. A 3PL model (3-parameter log-logistic model) was used for the monotherapy dose-response data, where the baseline response was fixed at one.
Following Harbron's approach, the following models were fitted to the data: • “Additive”: assuming no interaction between the two compounds • “Uniform”: assuming a constant interaction index τ across all dose combinations • “Linear A”: assuming the interaction index linearly depends on the log 10 dose of compound A: z=τ1+τ2 log 10(dA) • “Separate A”: assuming the interaction index τ takes a separate value for each dose of compound A The latter two models were also considered for compound B: • “Linear B”: assuming the interaction index linearly τ depends on the log 10 dose of compound B: τ=τ1+τ2 log 10(dB) • “Separate B”: assuming the interaction index τ takes a separate value for each dose of compound B

O=C(NC1CC1)c1cc2c(s1)-c1ccccc1N(C(=O)c1ccc(NC(=O)c3cccnc3N3CCC4(CC3)COC4)cc1)CC2 [AZ-27, N-cyclopropyl-5,6-dihydro-6-[4-[[[2-(2-oxa-7-azaspiro [3.5]non-7-yl)-3-pyridinyl]carbonyl]-amino]benzoyl]-4H-thieno [3,2-d][1]benzazepine-2-carboxamide, reference compound]
normalized GFP signal (A = 0, B (AZ-27) = 17): 1.03 | normalized GFP signal (A = 0, B (AZ-27) = 51): 1.00 | normalized GFP signal (A = 0, B (AZ-27) = 154): 0.53 | normalized GFP signal (A = 0, B (AZ-27) = 463): 0.07 | normalized GFP signal (A = 0, B (AZ-27) = 1389): 0.01 | normalized GFP signal (A = 0, B (AZ-27) = 4167): 0.00

COc1ccc(CCNCCCN2C(=O)c3c(cc(N)c4nc(-c5ccc(C)c([N+](=O)[O-])c5)[nH]c34)C(C)(C)C2=O)cc1OC [CAS 851658-10-1, 4-amino-8-[3-[[2-(3,4-dimethoxyphenyl)ethyl]amino]propyl]-6,6-dimethyl-2-(4-methyl-3-nitrophenyl)-3H-imidazo[4,5-h]isoquinoline-7,9(6H,8H)-dione, reference compound]
normalized GFP signal (A = 0, B (CAS 851658-10-1) = 1.9): 0.99 | normalized GFP signal (A = 0, B (CAS 851658-10-1) = 5.7): 0.97 | normalized GFP signal (A = 0, B (CAS 851658-10-1) = 17): 0.89 | normalized GFP signal (A = 0, B (CAS 851658-10-1) = 51): 0.74 | normalized GFP signal (A = 0, B (CAS 851658-10-1) = 154): 0.38 | normalized GFP signal (A = 0, B (CAS 851658-10-1) = 463): 0.05 | normalized GFP signal (A = 0, B (CAS 851658-10-1) = 1389): 0.01

CS(=O)(=O)CCCn1c(Cn2c(=O)n(CC(F)(F)F)c3ccncc32)cc2cc(Cl)ccc21 [Compound A, 3-({5-chloro-1-[3-(methylsulfonyl)propyl]-1H-indol-2-yl}methyl)-1-(2,2,2-trifluoroethyl)-1,3-dihydro-2H-imidazo[4,5-c]pyridin-2-one]
normalized GFP signal (A = 0.19 nM, B (A-60444) = 0): 0.96 | normalized GFP signal (A = 0.19 nM, B (AZ-27) = 0): 0.98 | normalized GFP signal (A = 0.19 nM, B (CAS 851658-10-1) = 0): 0.99 | normalized GFP signal (A = 0.19 nM, B (CR9501) = 0): 1.05 | normalized GFP signal (A = 0.19 nM, B (GS-5806) = 0): 0.99 | normalized GFP signal (A = 0.19 nM, B (MDT-637) = 0): 0.98 | normalized GFP signal (A = 0.19 nM, B (palivizumab) = 0): 1.04 | normalized GFP signal (A = 0.19 nM, B (pulmocide compound) = 0): 0.96 | normalized GFP signal (A = 0.19 nM, B (ribavirin) = 0): 0.97 | normalized GFP signal (A = 0.57 nM, B (A-60444) = 0): 0.95 | normalized GFP signal (A = 0.57 nM, B (AZ-27) = 0): 0.96 | normalized GFP signal (A = 0.57 nM, B (CAS 851658-10-1) = 0): 0.96 | normalized GFP signal (A = 0.57 nM, B (CR9501) = 0): 1.01 | normalized GFP signal (A = 0.57 nM, B (GS-5806) = 0): 0.93 | normalized GFP signal (A = 0.57 nM, B (MDT-637) = 0): 0.97 | normalized GFP signal (A = 0.57 nM, B (palivizumab) = 0): 0.98 | normalized GFP signal (A = 0.57 nM, B (pulmocide compound) = 0): 0.92 | normalized GFP signal (A = 0.57 nM, B (ribavirin) = 0): 0.95 | normalized GFP signal (A = 1.7 nM, B (A-60444) = 0): 0.83 | normalized GFP signal (A = 1.7 nM, B (AZ-27) = 0): 0.89 | normalized GFP signal (A = 1.7 nM, B (CAS 851658-10-1) = 0): 0.83 | normalized GFP signal (A = 1.7 nM, B (CR9501) = 0): 0.89 | normalized GFP signal (A = 1.7 nM, B (GS-5806) = 0): 0.83 | normalized GFP signal (A = 1.7 nM, B (MDT-637) = 0): 0.85 | normalized GFP signal (A = 1.7 nM, B (palivizumab) = 0): 0.86 | normalized GFP signal (A = 1.7 nM, B (pulmocide compound) = 0): 0.78 | normalized GFP signal (A = 1.7 nM, B (ribavirin) = 0): 0.87 | normalized GFP signal (A = 5.1 nM, B (A-60444) = 0): 0.55 | normalized GFP signal (A = 5.1 nM, B (AZ-27) = 0): 0.71 | normalized GFP signal (A = 5.1 nM, B (CAS 851658-10-1) = 0): 0.50 | normalized GFP signal (A = 5.1 nM, B (CR9501) = 0): 0.64 | normalized GFP signal (A = 5.1 nM, B (GS-5806) = 0): 0.47 | normalized GFP signal (A = 5.1 nM, B (MDT-637) = 0): 0.43 | normalized GFP signal (A = 5.1 nM, B (palivizumab) = 0): 0.57 | normalized GFP signal (A = 5.1 nM, B (pulmocide compound) = 0): 0.56 | normalized GFP signal (A = 5.1 nM, B (ribavirin) = 0): 0.63 | normalized GFP signal (A = 15 nM, B (A-60444) = 0): 0.38 | normalized GFP signal (A = 15 nM, B (AZ-27) = 0): 0.45 | normalized GFP signal (A = 15 nM, B (CAS 851658-10-1) = 0): 0.31 | normalized GFP signal (A = 15 nM, B (CR9501) = 0): 0.41 | normalized GFP signal (A = 15 nM, B (GS-5806) = 0): 0.30 | normalized GFP signal (A = 15 nM, B (MDT-637) = 0): 0.26 | normalized GFP signal (A = 15 nM, B (palivizumab) = 0): 0.38 | normalized GFP signal (A = 15 nM, B (pulmocide compound) = 0): 0.43 | normalized GFP signal (A = 15 nM, B (ribavirin) = 0): 0.39 | normalized GFP signal (A = 46 nM, B (A-60444) = 0): 0.28 | normalized GFP signal (A = 46 nM, B (AZ-27) = 0): 0.25 | normalized GFP signal (A = 46 nM, B (CAS 851658-10-1) = 0): 0.19 | normalized GFP signal (A = 46 nM, B (CR9501) = 0): 0.28 | normalized GFP signal (A = 46 nM, B (GS-5806) = 0): 0.21 | normalized GFP signal (A = 46 nM, B (MDT-637) = 0): 0.16 | normalized GFP signal (A = 46 nM, B (palivizumab) = 0): 0.28 | normalized GFP signal (A = 46 nM, B (pulmocide compound) = 0): 0.36 | normalized GFP signal (A = 46 nM, B (ribavirin) = 0): 0.25 | normalized GFP signal (A = 139 nM, B (A-60444) = 0): 0.14 | normalized GFP signal (A = 139 nM, B (AZ-27) = 0): 0.17 | normalized GFP signal (A = 139 nM, B (CAS 851658-10-1) = 0): 0.10 | normalized GFP signal (A = 139 nM, B (CR9501) = 0): 0.21 | normalized GFP signal (A = 139 nM, B (GS-5806) = 0): 0.11 | normalized GFP signal (A = 139 nM, B (MDT-637) = 0): 0.06 | normalized GFP signal (A = 139 nM, B (palivizumab) = 0): 0.17 | normalized GFP signal (A = 139 nM, B (pulmocide compound) = 0): 0.20 | normalized GFP signal (A = 139 nM, B (ribavirin) = 0): 0.15 | normalized GFP signal (A = 417 nM, B (A-60444) = 0): 0.07 | normalized GFP signal (A = 417 nM, B (AZ-27) = 0): 0.07 | normalized GFP signal (A = 417 nM, B (CAS 851658-10-1) = 0): 0.06 | normalized GFP signal (A = 417 nM, B (CR9501) = 0): 0.10 | normalized GFP signal (A = 417 nM, B (GS-5806) = 0): 0.06 | normalized GFP signal (A = 417 nM, B (MDT-637) = 0): 0.02 | normalized GFP signal (A = 417 nM, B (palivizumab) = 0): 0.09 | normalized GFP signal (A = 417 nM, B (pulmocide compound) = 0): 0.11 | normalized GFP signal (A = 417 nM, B (ribavirin) = 0): 0.08 | normalized GFP signal (A = 1250 nM, B (A-60444) = 0): 0.04 | normalized GFP signal (A = 1250 nM, B (AZ-27) = 0): 0.04 | normalized GFP signal (A = 1250 nM, B (CAS 851658-10-1) = 0): 0.04 | normalized GFP signal (A = 1250 nM, B (CR9501) = 0): 0.06 | normalized GFP signal (A = 1250 nM, B (GS-5806) = 0): 0.03 | normalized GFP signal (A = 1250 nM, B (MDT-637) = 0): −0.00 | normalized GFP signal (A = 1250 nM, B (palivizumab) = 0): 0.05 | normalized GFP signal (A = 1250 nM, B (pulmocide compound) = 0): 0.06 | normalized GFP signal (A = 1250 nM, B (ribavirin) = 0): 0.04
